From paper PMC5712521, “Dendrogenin A drives LXR to trigger lethal autophagy in cancers” (Nature Communications, 2017) come the findings set out here.

The target in test [1] is T1, human liver-X-receptor LXRα (Homo sapiens, UniProt Q13133).
T1 construct: expressed in transfected cells; host or cells: HEK293T
T1 sequence (Q13133 1-447): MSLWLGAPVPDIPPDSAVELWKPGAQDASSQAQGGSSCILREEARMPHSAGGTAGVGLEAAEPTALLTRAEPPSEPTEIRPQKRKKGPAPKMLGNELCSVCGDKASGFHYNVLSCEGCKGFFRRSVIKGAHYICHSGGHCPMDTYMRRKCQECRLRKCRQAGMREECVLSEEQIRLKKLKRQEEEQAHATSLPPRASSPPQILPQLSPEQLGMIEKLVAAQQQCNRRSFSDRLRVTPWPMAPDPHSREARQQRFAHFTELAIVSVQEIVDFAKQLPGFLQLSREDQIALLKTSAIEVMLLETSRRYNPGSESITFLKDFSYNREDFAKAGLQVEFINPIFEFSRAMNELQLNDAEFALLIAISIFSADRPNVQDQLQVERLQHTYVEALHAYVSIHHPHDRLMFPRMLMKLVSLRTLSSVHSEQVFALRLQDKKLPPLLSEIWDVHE
T1 sequence (P48443 1-463 partner): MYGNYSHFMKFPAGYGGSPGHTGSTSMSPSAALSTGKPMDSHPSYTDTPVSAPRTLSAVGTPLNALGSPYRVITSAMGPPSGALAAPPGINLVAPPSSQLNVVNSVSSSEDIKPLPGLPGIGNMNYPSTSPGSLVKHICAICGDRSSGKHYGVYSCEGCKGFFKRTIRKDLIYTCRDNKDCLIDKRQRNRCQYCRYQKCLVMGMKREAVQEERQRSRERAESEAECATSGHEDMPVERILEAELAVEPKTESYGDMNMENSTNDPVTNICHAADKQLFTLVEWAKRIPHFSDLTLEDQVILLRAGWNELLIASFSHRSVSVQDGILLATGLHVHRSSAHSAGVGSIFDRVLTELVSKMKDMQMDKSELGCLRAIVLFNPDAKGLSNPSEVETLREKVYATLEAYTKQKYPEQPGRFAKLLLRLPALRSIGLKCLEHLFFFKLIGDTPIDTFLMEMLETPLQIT
As to the kind of experiment: LXRE-luciferase gene reporter assay in HEK293T, LXRα. The format is cell-based. Particulars: LXRα; 10 µM 22(R)HC; read-out: IC50, inhibition of LXR-dependent luciferase activity stimulated by 22(R)HC. From the text:
HEK293T were used for luciferase assays. Cells were transfected using the PolyEthylenImine (PEI) method with human retinoid-X receptor (RXRγ) and human liver-X-receptors (LXRα or LXRβ) with LXRE-Luc; RXRγ and human farnesoid X receptor (FXR) with EcRE-Luc; RXRγ and human steroid and xenobiotic X receptor (SXR) with DR4-Luc; RXRγ and human peroxisome proliferator activated receptors (PPARα, or PPARγ) with PPRE-Luc; RXRγ and human retinoic acid receptor (RARα) with DR1-Luc; human AHR and human ARNT with a DRE-Luc; human vitamin D receptor (VDR) with VDRE-Luc. Cells were transfected with plasmids encoding human glucocorticoid receptor (GR), progesterone receptor (PR), or androgen receptor (AR) with MMTV-Luc; or estrogen receptors (ERα and ERβ) with an ERE-Luc. The day after transfection with the luciferase reporter gene construct, cells were seeded in 12-well plates (50,000 cells per well). After 6 h, cells were then treated with the following ligands dissolved in ethanol: 10 nM estradiol (E2) for ERα and ERβ; 10 nM R1881 for AR; 10 nM R5020 for PR; 10 nM dexamethasone for GR; 10 µM fenofibrate for PPARα; 100 nM rosiglitazone (BRL 49653) for PPARγ; 100 nM cis-retinoic acid (cRA) for RAR; 10 nM dioxine for AHR, 10 µM rifampicine for SXR and 10 µM 22(R) hydroxycholesterol (22(R)HC) for LXRα and LXRβ. At the end of each treatment, cells were lysed in 100 μl lysis buffer (Promega). Luciferase activity was measured using the luciferase assay reagent (Promega), according to the manufacturer’s instructions. Protein concentrations were measured using the Bradford method to normalize luciferase activities. For each condition, luciferase activity was calculated from the data of three independent wells.
A general note: Reporter assays use an easily measured gene product as a stand-in for the process of interest.

The next test concerns B16F10 cells. As to the kind of experiment: Immunoblot densitometry (LC3-II). The format is cell-based, mouse. Particulars: 2.5 µM DDA, 24 h. As for the experimental part:
Immunoblotting was carried out as described previously. Proteins were separated on SDS-PAGE gels, electro-transferred onto polyvinylidene difluoride membranes and incubated overnight at 4 °C with the following antibodies: anti-Atg3, anti-Atg5 (D1G9), anti-Atg7 (D12B11), anti-Beclin (D40C5), anti-caspase-3 (Cell Signaling), anti-Bcl-2 (Millipore), anti-Bax (Millipore), anti-LC3 (Sigma-Aldrich), anti-LXRα (SantaCruz), anti-LXRβ (SantaCruz), anti-Nur77 (Active motif), anti-NOR1 (R&D systems), anti-PARP (Cell Signaling), anti-Vps34 (Cell Signaling), or anti-Actin (Millipore). For visualization, an ECL plus kit (Amersham Biosciences) was used, and chemiluminescence was measured by autoradiography (Supplementary Fig. 9). Specific bands were quantified with ImageQuant software.
(In general: In western blotting, separated proteins are transferred to a membrane and probed.)

“And” between values parts separate entries of the source, which are not always exact repeats. Identical values can stand only once.

`CC(C)CCC[C@@H](C)[C@H]1CC[C@H]2[C@@H]3C[C@@H](NCCc4cnc[nH]4)[C@@]4(O)C[C@@H](O)CC[C@]4(C)[C@H]3CC[C@]12C` [DDA, Dendrogenin A]: the concentration for half-maximal inhibition (IC50) in test [1] was 362 ± 52 nM. For the same compound, the “LC3-II protein, densitometry” value in the test on B16F10 cells (B16F10 siATG7) was 0.8; with B16F10 cells (B16F10 siBECN1), 1.3; in the test on B16F10 cells (B16F10 siNOR1 + siNur77), 0.8; in the test with B16F10 cells (B16F10 siNOR1), 0.8; in the test with B16F10 cells (B16F10 siNur77) it was 1.1; in the test on B16F10 cells (B16F10 siSC) it was 2.5 and 1.8 and 2.3. Besides, the “LC3-II protein, densitometry” value in the test with B16F10 cells (B16F10 siVPS34) was 1.9.

Usually IC50 stands for the concentration that gives 50% inhibition.
